Measurements as given in ChEMBL document CHEMBL3608277 (ACS Med Chem Lett, 2015).
Active and inactive are the calls of the source. The calls are words filed in the database; no cut-off is given here.

Tests used:
[1] = test system: Human immunodeficiency virus 1; assay: Antiviral activity against HIV1 3B infected in CD4/CXCR4 expressing human MAGI cells incubated for 48 hrs by beta-galactosidase reporter gene assay; assay type: functional, organism-based; details: Human immunodeficiency virus 1, 3B
[2] = test system: Human immunodeficiency virus 1; assay: Antiviral activity against HIV1 BaL infected in CD4/CCR5 expressing human MAGI cells incubated for 48 hrs by beta-galactosidase reporter gene assay; assay type: functional, organism-based; details: Human immunodeficiency virus 1, BaL
[3] = biological target: T1, C-C chemokine receptor type 5 (Homo sapiens, UniProt P51681); assay: Displacement of [125I]-MIP-1beta form CCR5 (unknown origin)
Target sequence in this assay (P51681 whole entry): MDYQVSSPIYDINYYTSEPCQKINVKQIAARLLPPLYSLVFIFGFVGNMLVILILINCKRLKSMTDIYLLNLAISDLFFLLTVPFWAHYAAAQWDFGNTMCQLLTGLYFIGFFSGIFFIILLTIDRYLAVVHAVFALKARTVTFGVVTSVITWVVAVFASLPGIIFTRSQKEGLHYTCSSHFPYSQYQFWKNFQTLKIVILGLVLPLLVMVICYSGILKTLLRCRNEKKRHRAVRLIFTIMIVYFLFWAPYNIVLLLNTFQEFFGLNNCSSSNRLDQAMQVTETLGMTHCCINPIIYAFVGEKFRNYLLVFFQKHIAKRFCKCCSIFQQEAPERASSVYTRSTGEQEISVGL

[4] = Toxicity against human HeLa67 cells; assay type: cell-based
[5] = test system: Human immunodeficiency virus; assay: Resistance index, ratio of EC50 for […] HIV containing reverse transcriptase K103N/Y181C mutation to EC50 for wild type HIV; assay type: functional
[6] = biological target: C-X-C chemokine receptor type 4 (Homo sapiens) (UniProt P61073); assay: Inhibition of CXCR4 in human Jurkat cells assessed as reduction in HIV-Nef-M1-induced mitochondrial membrane depolarization at 0.01 to 100 uM by JC1 dye based fluorescence depolarization assay; assay type: cell-based
Chain of C-X-C chemokine receptor type 4 (Homo sapiens) (P61073 whole entry): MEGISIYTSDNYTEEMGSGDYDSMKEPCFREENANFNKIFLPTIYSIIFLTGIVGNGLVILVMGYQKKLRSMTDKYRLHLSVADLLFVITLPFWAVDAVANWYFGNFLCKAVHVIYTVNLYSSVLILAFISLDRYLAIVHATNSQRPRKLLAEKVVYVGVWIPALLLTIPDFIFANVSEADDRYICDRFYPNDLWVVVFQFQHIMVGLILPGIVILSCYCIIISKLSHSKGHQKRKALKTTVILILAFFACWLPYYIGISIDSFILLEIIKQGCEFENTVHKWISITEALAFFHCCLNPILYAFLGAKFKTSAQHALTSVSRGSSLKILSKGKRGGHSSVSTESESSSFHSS

[7] = Toxicity against human PBMC by MTS assay; assay type: cell-based; details: read-out: TC50 (the source's name)
[8] = Toxicity against human MAGI cells incubated for 48 hrs by MTS assay; assay type: cell-based; details: read-out: TC50
[9] = test system: Human immunodeficiency virus 1; assay: Antiviral activity against HIV1 BaL infected in CD4/CCR5 expressing human PBMC cells by reverse transcriptase activity and/or p24 antigen content detection based assay; assay type: functional, organism-based; details: Human immunodeficiency virus 1, BaL
[10] = test system: Human immunodeficiency virus 1; assay: Antiviral activity against HIV1 3B infected in CD4/CXCR4 expressing human PBMC cells by reverse transcriptase activity and/or p24 antigen content detection based assay; assay type: functional, organism-based; details: Human immunodeficiency virus 1, 3B
[11] = biological target: T1, C-C chemokine receptor type 5; assay: Displacement of [125I]-MIP-1beta form CCR5 (unknown origin) at 100 uM
Target sequence in this assay (P51681 whole entry, looked up): as the sequence (P51681 whole entry) above

[12] = biological target: T1, C-C chemokine receptor type 5; assay: Displacement of [125I]-MIP-1beta form CCR5 (unknown origin) at 1 mM
Target sequence in this assay (P51681 whole entry, looked up): as the sequence (P51681 whole entry) above

[13] = Toxicity against HEK293 cells derived ACTOne-X4 cells; assay type: cell-based; details: human
[14] = test system: Human immunodeficiency virus 2; assay: Antiviral activity against HIV2 CDC310319 infected in human PBMC cells; assay type: functional, organism-based; details: Human immunodeficiency virus 2, CDC310319, PBMC
[15] = biological target: C-X-C chemokine receptor type 4 (Homo sapiens) (UniProt P61073); assay: Displacement of [125I]-SDF1 form CXCR4 (unknown origin) at 1 mM
[16] = Inhibition of HIV pNL4-3 heterodimeric reverse transcriptase p66/p51 incubated at 37 degC for 1 hr by scintillation counting method; set-up: species or system Human immunodeficiency virus
[17] = test system: Human immunodeficiency virus; assay: Antiviral activity against NNRTI-resistant HIV containing reverse transcriptase K103N/Y181C mutation; assay type: functional, organism-based; details: Human immunodeficiency virus 1
[18] = test system: Human immunodeficiency virus; assay: Antiviral activity against wild type HIV; assay type: functional, organism-based; details: Human immunodeficiency virus 1

| Structure (SMILES) | IC50 [1] [µM] | IC50 [2] [µM] | further results |
| --- | --- | --- | --- |
| COc1ncc(CN2CCC(c3[nH]ncc3Cc3ccccc3)CC2)cn1 | > 200 | 72 | IC50 [3]: 70 µM |
| Cc1ccc(-c2ccc3c(c2)C=C(C(=O)Nc2ccc(C[N+](C)(C)C4CCOCC4)cc2)CCC3)cc1.[Cl-] | – | – | Activity [4]: Toxic |
| CCc1cc(CN2CCC(c3[nH]ncc3Cc3ccccc3)CC2)[nH]n1 | 68 | 60 | – |
| O=C1Nc2ccc(Cl)cc2[C@@](C#CC2CC2)(C(F)(F)F)O1 [EFAVIRENZ] | – | – | Ratio EC50 [5]: 70 |
| c1cc(CN2CCCNCCNCCCNCC2)ccc1CN1CCCNCCNCCCNCC1 | – | – | inhibition [6]: Active |
| c1ccc(Cc2cn[nH]c2C2CCN(Cc3ccccn3)CC2)cc1 | 25 | 17 | – |
| c1ccc(Cc2cn[nH]c2C2CCN(Cc3ccncc3)CC2)cc1 | 0.8 | 3.8 | CC50 [7]: > 100 µM; CC50 at 48 h [8]: > 300 µM; IC50 [9]: 2.3 µM; IC50 [10]: 2.3 µM; inhibition [11]: 38%; inhibition [12]: 88%; CC50 [13]: > 200 µM; IC50 [14]: 31 µM; inhibition [15]: 0%; IC50 [16]: 9 µM; EC50 [17]: 19 µM; EC50 [18]: 0.9 µM |
| c1ccc(Cc2cn[nH]c2C2CCN(Cc3cccnc3)CC2)cc1 | 5.8 | 16 | – |
| Cc1cn([C@H]2C[C@H](N=[N+]=[N-])[C@@H](CO)O2)c(=O)[nH]c1=O | – | – | inhibition [6]: inactive |
| Cc1nnc(C(C)C)n1[C@H]1C[C@H]2CC[C@@H](C1)N2CC[C@H](NC(=O)C1CCC(F)(F)CC1)c1ccccc1 | – | – | inhibition [6]: inactive |

Continued, in another order:

| IC50 [1] [µM] | IC50 [2] [µM] | Structure (SMILES) | further results |
| --- | --- | --- | --- |
| 81 | 83 | Nc1ccnc(CN2CCC(c3[nH]ncc3Cc3ccccc3)CC2)n1 | – |
| 57 | 66 | CCc1nccc(CN2CCC(c3[nH]ncc3Cc3ccccc3)CC2)n1 | – |
| 105 | 95 | Nc1ncc(N2CCC(c3[nH]ncc3Cc3ccccc3)CC2)cn1 | – |
| 44 | 64 | c1ccc(-c2cn[nH]c2C2CCN(Cc3cccnc3)CC2)cc1 | – |
| 6.4 | 13 | CC(C)c1nccc(CN2CCC(c3[nH]ncc3Cc3ccccc3)CC2)n1 | – |
| 13 | 17 | Nc1cc(CN2CCC(c3[nH]ncc3Cc3ccccc3)CC2)ncn1 | – |
